Laboratory results taken from patent US20060147516A1, “Taste masking system for alprazolam” (CIMA LABS INC., priority 2005, published 2006).

Test: Solubility of alprazolam in ethanol (coating solvent)
Format: physicochemical
Conditions: at working concentrations in ethanol
Protocol: The resulting particles were discreet, non-tacky and exceptionally workable. By working with various materials, and without wishing to be bound by a particular theory, it was determined that certain drugs react and/or interact with the polymer materials in the taste masking coating material, changing their individual characters rendering the material more tacky. The present invention intends to encompass only those active pharmaceutical ingredients that would not so adversely affect workability so as to prevent their effective use in forming discrete, preferably free flowing, well coated, well characterized solid supports, which may be further coated. Active pharmaceutical ingredients that may be used in addition to alprazolam in accordance with the present invention may include, without limitation, analgesics, anti-inflammatories, antipyretics, antibiotics, antimicrobials, anxiolytics, laxatives, anorexics, antihistamines, antidepressants, antiasthmatics, antidiuretics, antiflatuents, antimigraine agents, antispasmodics, sedatives, antihyperactives, antihypertensives, tranquilizers, decongestants, beta blockers, peptides, proteins, oligonucleotides and other substances of biological origin, and combinations thereof. Also contemplated are the drugs and pharmaceutically active ingredients described in Mantelle, U.S. Pat. No. 5,234,957, in columns 18 through 21. […]

With `Cc1nnc2n1-c1ccc(Cl)cc1C(c1ccccc1)=NC2` [alprazolam] the solubility in ethanol was “sparingly soluble”.
